According to patent US6750199B2, “Antimicrobial sulfonamide derivatives of lipopeptide antibiotics” (Micrologix Biotech Inc., priority 2000, dated 2004):
In brackets after ≈: the same amount, converted by molar mass. Like-named read-outs stand apart in the source and are kept apart here. Starred links: 1 amine or outer side, 2 acyl side, 3 side chain; linkers in the order of their positions; H or OH if unused. Positions of bridges follow the written chain, without caps; N, C: chain ends. Non-standard residues stand in square brackets, D forms with d. Residues, ends and D or L forms follow the SMILES beside them. ξ: configuration not given here. *: point of attachment. Hexadecanesulfonyl = CCCCCCCCCCCCCCCCS(=O)(=O)*; ξAbu(βξ-NH2) = CC(N[*:3])C(N[*:1])C(=O)[*:2]; ξAsp(βξ-Me) = CC(C(=O)O)C(N)C(=O)O; ξAbu(3ξ-NH2) = CC(N)C(N)C(=O)O; X1 = CCCCCCCCCCS(=O)(=O)*; Pip = O=C(O)[CH]1CCCCN1; ξD = NC(CC(=O)O)C(=O)O; Dap = NC[CH](N)C(=O)O; ξI = CCC(C)C(N)C(=O)O; ξPip = O=C(O)C1CCCCN1; ξT = CC(O)C(N)C(=O)O; ξDap = NCC(N)C(=O)O; ξP = O=C(O)C1CCCN1

What was measured:
Staphylococcus aureus = assay: MIC against Staphylococcus aureus (comparison with aspartocin); format: cell-based
Protocol: One drop of piperdine was added to about 5.5 mg of the product from Section 5.2.4 dissolved in 2.0 mL of 2:1 mixture of dimethylsulfoxide:methanol. Monitoring by HPLC indicated the reaction was complete after 60 minutes at room temperature. The reaction was quenched by addition of 6.0 mL cooled 0.2 M ammonium phosphate at pH 7.2. The quenched reaction mixture was applied to a 0.5 g resin cartridge (ENVI-Chrom P) and eluted with a stepwise gradient of pH 7.2 phosphate-buffered aqueous acetonitrile. The product was eluted with 25% acetonitrile. Appropriate fractions were pooled and acetonitrile was removed under vacuum at room temperature. The product was desalted by adsorption onto a 0.5 g resin cartridge which was then rinsed with 10% acetonitrile, followed by 50% acetonitrile. The 50% acetonitrile eluate was evaporated to remove acetonitrile and the resulting aqueous solution freeze dried to provide about 1.5 mg of white solid. FAB-MS: m/z 1379 (M+Na)^+ was consistent with the expected structure.

[1] = test system: Staphlococcus aureus strain Smith; format: cell-based
Protocol: MIC values were determined by microliter serial dilution using Staphlococcus aureus strain Smith as the assay organism, which was grown in Mueller-Hinton broth with and without CaCl2.

Staphylococuss aureus = assay: Resistance to deacylase enzyme: agar well zone diffusion bioassay of deacylase broth samples; format: cell-based; conditions: 9 mm well, 100 μl of sample, incubated 16 hrs. at 28° C.; for Bioassay zone dia. 16 hours: after 16 hours in deacylase broth, 200 rpm, 84° C.; for Bioassay zone dia. Zero time: zero time in deacylase broth
Protocol: (§1) One milligram of the hexadecylsulfonyl-L-tryptophan derivative of the core antibiotic of laspartomycin (see Section 5.4 for preparation) was added to 2 mL of deacylase broth (prepared as described in Section 5.1) and a zero time sample (0.5 mL) was removed and stored by freezing. The reaction mixture was placed on a shaker at 200 rpm and 84° C. for 16 hours. The zero and 16 hour samples were then studied by HPLC and by agar well zone diffusion assay using Staphylococuss aureus as a test organism. The same conditions were used to compare laspartomycin to enzyme deactivation. […] Under the same conditions Antibiotic A21978C and Aspartocin were completely deactivated within two hours and 16 hours, respectively.

deacylase broth = assay: in vitro; format: in vitro ADME, Actinoplanes utahensis NRRL 12052
Protocol: (§2) The high-producing, natural variant was used in the known fermentation protocol employed (Boeck et al., 1988. J. Antibiot., 41, 1085). A stock culture of Actinoplanes utahensis NRRL 12052 variant, preserved in 20% glycerol at −70° C., was introduced into a 25×150 mm test tube containing 10 mL of a medium comprised of 2.0% sucrose, 2.0% pre-cooked oatmeal, 0.5% distiller's grain, 0.25% yeast, 0.1% K2HPO4, 0.05% KCl, 0.05% MgSO4-7H2O and 0.0002% FeSO4-7H2O in deionized water. After incubation at 30° C. for 72 hrs on a rotary shaker orbiting at 250 rpm the resulting mycelial suspension was transferred into 50 mL of PM3 medium in a 250 mL Erlenmeyer flask. The PM3 medium contained 2.0% sucrose, 1.0% peanut meal, 0.12% K2HPO4, 0.05% KH2PO4 and 0.025% MgSO4-7H2O, in tap water. The flask was incubated at a temperature of 30° C. for a period of between 60 to 90 hrs. The whole broth from this fermentation contained the deacylase enzyme.
as §1

deacylase = assay: in vitro; format: in vitro ADME, Actinoplanes utahensis NRRL 12052; conditions: Actinoplanes utahensis, cells or culture medium
Protocol: as §2, §1

With “Decanesulfonylglycyl Aspartocin [decanesulfonylglycyl derivative]” the “MIC values compared with aspartocin” value (Staphylococcus aureus) was “essentially the same as those for aspartocin”.
CCCCCCCCCCCCCCCCS(=O)(=O)NC(Cc1ccccc1)C(=O)NC(CC(=O)O)C(=O)NC1CNC(=O)C2CCCN2C(=O)C(C(C)CC)NC(=O)C(C(C)O)NC(=O)CNC(=O)C(CC(=O)O)NC(=O)CNC(=O)C(CC(=O)O)NC(=O)CNC(=O)C2CCCCN2C1=O (stereo not drawn) [Compound 56] (Hexadecanesulfonyl-FD[Dap][Pip]GDGDGTIP; lactam 3-C; configuration not given here) was tested, and the “MIC w CaCl2 (4 mm)” value [1] was 4000 µg/mL (≈ 2740 µM) and the “MIC w/o CaCl2” value [1] was 8000 µg/mL (≈ 5480 µM).
In the case of CCCCCCCCCCCCCCCCS(=O)(=O)N[C@@H](Cc1c[nH]c2ccccc12)C(=O)N[C@@H](CC(=O)O)C(=O)NC1CNC(=O)C2CCCN2C(=O)C(C(C)CC)NC(=O)C(C(C)O)NC(=O)CNC(=O)C(CC(=O)O)NC(=O)CNC(=O)C(CC(=O)O)NC(=O)CNC(=O)C2CCCCN2C1=O (stereo partly drawn) [Hexadecylsulfonyl-L-Tryptophan Derivative of the Core Antibiotic of Laspartomycin] (Hexadecanesulfonyl-WD[ξDap][ξPip]G[ξD]G[ξD]G[ξT][ξI][ξP]; lactam 3-C), the “Bioassay zone dia. 16 hours” value (Staphylococuss aureus) is reported as 12.8 mm, the “Bioassay zone dia. Zero time” value (Staphylococuss aureus) is reported as 13.7 mm and the “HPLC Peak Area zero time” value (deacylase broth) is reported as 100%. The “deactivation / degradation by the enzyme preparation (in words)” value (deacylase broth) was “degraded at a much slower rate” and the remaining at 16 h, 0.5 mg/mL (deacylase) was 53%.
With CCCCCCCCCCS(=O)(=O)NCC(=O)NC(CC(=O)O)C(=O)NC1C(=O)N2CCCCC2C(=O)NC(C(C)C(=O)O)C(=O)NC(CC(=O)O)C(=O)NCC(=O)NC(CC(=O)O)C(=O)NCC(=O)NC(C(C)N)C(=O)NC(C(C)C)C(=O)N2CCCC2C(=O)NC1C (stereo not drawn) [Compound 58] (X1-GD[ξAbu(βξ-NH2)][Pip][ξAsp(βξ-Me)]DGDG[ξAbu(3ξ-NH2)]VP; lactam 3-C; configuration not given here) the “MIC w CaCl2 (4 mm)” value [1] was 1000 µg/mL (≈ 737 µM) and the “MIC w/o CaCl2” value [1] was 32000 µg/mL (≈ 23600 µM).
laspartomycin [reference compound] was tested, and the “MIC w CaCl2 (4 mm)” value ([1]; S. aureus strain Smith, Mueller-Hinton broth, with CaCl2 (4 mm)) was 2000 µg/mL, the “MIC w/o CaCl2” value ([1]; S. aureus strain Smith, Mueller-Hinton broth, without CaCl2) was 16000 µg/mL and the “Bioassay zone dia. 16 hours” value (Staphylococuss aureus) was “no zone”. For the same compound, the “Bioassay zone dia. Zero time” value (Staphylococuss aureus) was 15.5 mm, the “HPLC Peak Area zero time” value (deacylase broth) was 100% and the “deactivation / degradation by the enzyme preparation (in words)” value (deacylase broth) was “complete deactivation”. For the same compound, the “HPLC Peak Area 16 hours” value (deacylase broth; Actinoplanes utahensis, cells or culture medium, 16 h, 0.5 mg/mL) was 0%.
CCCCCCCCCCCCCCCCS(=O)(=O)NC(Cc1ccccc1)C(=O)NC(CC(=O)O)C(=O)NC1C(=O)N2CCCCC2C(=O)NC(C(C)C(=O)O)C(=O)NC(CC(=O)O)C(=O)NCC(=O)NC(CC(=O)O)C(=O)NCC(=O)NC(C(C)N)C(=O)NC(C(C)C)C(=O)N2CCCC2C(=O)NC1C (stereo not drawn) [Compound 62] (Hexadecanesulfonyl-FD[ξAbu(βξ-NH2)][Pip][ξAsp(βξ-Me)]DGDG[ξAbu(3ξ-NH2)]VP; lactam 3-C; configuration not given here) was tested, and the “MIC w CaCl2 (4 mm)” value [1] was 4000 µg/mL (≈ 2610 µM) and the “MIC w/o CaCl2” value [1] was 4000 µg/mL (≈ 2610 µM).
With CCCCCCCCCCCCCCCCS(=O)(=O)NC(Cc1c[nH]c2ccccc12)C(=O)NC(CC(=O)O)C(=O)NC1CNC(=O)C2CCCN2C(=O)C(C(C)CC)NC(=O)C(C(C)O)NC(=O)CNC(=O)C(CC(=O)O)NC(=O)CNC(=O)C(CC(=O)O)NC(=O)CNC(=O)C2CCCCN2C1=O (stereo not drawn) [Compound 52] (Hexadecanesulfonyl-WD[Dap][Pip]GDGDGTIP; lactam 3-C; configuration not given here) the “MIC w CaCl2 (4 mm)” value [1] was 4000 µg/mL (≈ 2670 µM) and the “MIC w/o CaCl2” value [1] was 8000 to 16000 µg/mL.
